Assay results published in PMC12155845, “Antimicrobial Activity of Copper(II), Nickel(II) and Zinc(II) Complexes with Semicarbazone and Thiosemicarbazone Ligands Derived from Substituted Salicylaldehydes” (Molecules, 2025).
pIC50: −log10 of the molar value. “Also recorded” adds a separate entry of the source. Like-named read-outs stand apart in the source and are kept apart here.

Key:
[1] = system: pmaxGFP plasmid DNA; assay: In vitro DNA cleavage/mobility shift assay (agarose gel electrophoresis); format: biochemical; settings: for Plasmid DNA cleavage in presence of H2O2 (in words): 100 µM of sample, 200 ng plasmid DNA, 10 mM H2O2, 37 °C, 2 h
Experimental: The nuclease activity of the metal complexes was investigated by means of gel electrophoresis after incubating the reaction mixtures (100 µM of sample and 200 ng of plasmid DNA) at 37 °C for 2 h. […] Thus, the assays with the metal complexes were performed in the absence and presence of H2O2 at 10 mM to check whether the DNA cleavage and damage take place through a hydrolytic or an oxidative mechanism.
Studies of the interactions between the metal compounds and plasmid DNA were carried out by agarose gel electrophoresis. Thus, 200 ng of pmaxGFP plasmid, 3527 bps, (Lonza, Basel, Switzerland) were incubated with the metal compounds at 100 μM in the absence or presence of 10 mM of H2O2 in Tris-HCl buffer (NaCl 50 mM, Tris-HCl 5 mM, pH 7.20). The mixture was incubated at 37 °C for 2 h, then the reactions were quenched by adding 5 μL of the loading buffer solution and analyzed by 1% agarose gel electrophoresis.

[2] = system: human red blood cells (hRBCs); assay: Hemolytic activity assay; format: cell-based
Experimental: The hemolytic activity of the metal complexes was evaluated as the amount of hemoglobin released by the disruption of human red blood cells (hRBCs). Briefly, a suspension of hRBCs (4% w/v in PBS) was prepared from the peripheral blood of anonymous blood donors available for research purposes. […] Then, the supernatants were spectrophotometrically evaluated at OD405nm. Untreated hRBCs (in PBS) and hRBCs incubated with 1% Triton X-100 were employed as negative and positive controls, respectively. The hemolysis percentage was calculated as [OD405nm (sample) − OD405nm (negative control)]/[OD405nm (positive control) − OD405nm (negative control)] × 100. Minimal hemolytic concentrations (MHCs) were defined as the compound concentration causing 10% hemolysis.

[3] = system: HEL 299 fibroblasts (ATCC-CCL-137); assay: Cell viability and proliferation assay (WST8/CCK-8); format: cell-based, human; settings: for Percentage values of cell viability, HEL 299: compound at 100 μM, mean and standard deviation, relative to untreated controls; for Cell proliferation, HEL 299 (Table S1): ligand at 100 μM, mean values and standard deviations
Experimental: HEL 299 cells, obtained from the American Type Culture Collection (ATCC-CCL-137), were selected to investigate the effect of the metal complexes on non-malignant human fibroblasts. Briefly, cells were cultured in Eagle’s Minimum Essential Medium (EMEM) supplemented with 10% fetal bovine serum (FBS), 100 U/mL penicillin and 100 µg/mL streptomycin at 37 °C with 5% CO2. For the biological assays, cells were grown in 96-well plates at 10^4 cells/well. After 24 h of incubation at 37 °C, the monolayer was treated with 100 µL of medium containing the 2-fold serial dilutions of the compounds in the range 100–0.19 µM. Cell viability was assessed by a colorimetric WST8-based assay according to the manufacturer’s instructions (CCK-8, Cell Counting Kit-8, Dojindo Molecular Technologies, Rockville, MD, USA) by measuring the OD at 450 nm. Data are expressed as the percentage of cell viability relative to the untreated controls. The CC50 was obtained on the corresponding dose–response curves generated as previously reported for IC50 values.

[4] = system: Escherichia coli ATCC 25922; assay: Microdilution antimicrobial assay (CLSI), E. coli; format: cell-based; settings: for Percentage values of microbial growth, E. coli: mean and standard deviation, 24 h; for Microbial growth, E. coli (Table S1): ligand at 100 μM, mean values and standard deviations
Experimental: (§1) Reference strains of Staphylococcus aureus (ATCC 25923), Escherichia coli (ATCC 25922) and Candida albicans (ATCC 10231) were used in this study as model systems. These laboratory strains were purchased from the American Type Culture Collection (ATCC) (Manassas, VA, USA). […] The antimicrobial properties of the metal complexes were determined by a previously established microdilution method in agreement with the Clinical and Laboratory Standard Institute (CLSI) guidelines. […] The metal complexes were two-fold serially diluted and tested in the range of 100-0.19 μM. Positive controls (in regular media), negative controls (only compounds), solvent controls (DMSO dilutions) and the reference drugs were included in the tests. The plate was incubated at 37 °C for 24 h, and the OD630nm was measured.

[5] = system: Staphylococcus aureus ATCC 25923; assay: Microdilution antimicrobial assay (CLSI), S. aureus; format: cell-based; settings: for Antimicrobial activity against S. aureus (in words): up to 100 μM; for Percentage values of microbial growth, S. aureus: compound at 100 μM, mean and standard deviation, 24 h, relative to positive controls; for Microbial growth, S. aureus (Table S1): ligand at 100 μM, mean values and standard deviations
Experimental: as §1

[6] = system: Candida albicans ATCC 10231; assay: Microdilution antifungal assay (CLSI), C. albicans; format: cell-based; settings: for Percentage values of microbial growth, C. albicans: mean and standard deviation
Excerpt: Reference strains of Staphylococcus aureus (ATCC 25923), Escherichia coli (ATCC 25922) and Candida albicans (ATCC 10231) were used in this study as model systems. These laboratory strains were purchased from the American Type Culture Collection (ATCC) (Manassas, VA, USA). The cultures were routinely grown on 5% blood agar plates or Sabouraud Dextrose agar plates (Biolife Italiana S.r.l., Milan, Italy) and used freshly in the assays.
The antimicrobial properties of the metal complexes were determined by a previously established microdilution method in agreement with the Clinical and Laboratory Standard Institute (CLSI) guidelines. […] The metal complexes were two-fold serially diluted and tested in the range of 100–0.19 µM. Positive controls (in regular media), negative controls (only compounds), solvent controls (DMSO dilutions) and the reference drugs were included in the tests. The plate was incubated at 37 °C for 24 h, and the OD630nm was measured.

[7] = compound at 100 μM, 1 h at 37 °C
[8] = mean values and 95% Confidence Interval, dose–response
[9] = ligand at 100 μM, mean values and standard deviations

Compound	Percentage values of hemolytic activity, hRBCs [2, 7]	Percentage values of cell viability, HEL 299 [3]	Percentage values of microbial growth, E. coli ([4]; compound at 100 μM)	Percentage values of microbial growth, C. albicans ([6]; compound at 100 μM, 24 h)	Percentage values of microbial growth, S. aureus [5]	Cell proliferation, HEL 299 (Table S1) [3]	Microbial growth, E. coli (Table S1) [4]	Microbial growth, S. aureus (Table S1) [5]	Microbial growth, C. albicans (Table S1) [6, 9]	also measured
N.N.[Cl][Pt][Cl] [CP, cisplatin, reference compound]										Binding interaction with plasmid DNA, electrophoresis mobility (in words) ([1]; cisplatin at 500, 100 and 50, 37°C for 2 h, pmaxGFP): cause a shift of the electrophoresis mobility
CCNC(=S)N/N=C/c1cccc(OC)c1[O-].[Cl-].[Cu+2] [Compound 4]	<5%	9.1 ± 1.1%	110.5 ± 4.8%	15.6 ± 5.5%						CC50 [3, 8]: 1.4 µM; Plasmid DNA cleavage in presence of H2O2 (in words) [1]: extensive damage to the plasmid DNA; pIC50 [5, 8]: 5.46; Antimicrobial activity against S. aureus (in words) [5]: completely inhibited; also recorded: good activity; also recorded: micromolar activity; pIC50 [6, 8]: 4.26; Antimicrobial activity against C. albicans (in words) ([6]; up to 100 μM): slightly interfered
COc1cccc(/C=N/NC(N)=O)c1[O-].[Cl-].[Cu+2] [Compound 5, [Cu(HL3)Cl]∙0.5H2O∙0.5CH3OH]	<5%	20.3 ± 0.6%	55.8 ± 0.5%	77.8 ± 2.0%	83.6 ± 1.4%					Reduction of E. coli growth compared to the untreated cells ([4]; compound at 100 μM): 44.2%; Antimicrobial activity against E. coli (in words) ([4]; up to 100 μM): lack of antibacterial activity; Plasmid DNA cleavage in presence of H2O2 (in words) [1]: degrade plasmid DNA; Antimicrobial activity against S. aureus (in words) [5]: lack of antibacterial activity
COc1cc(S(=O)(=O)[O-])cc(/C=N/NC(N)=S)c1[O-].[Cl-].[Cu+2].[Na+] [Compound 8]	<5%	90.4 ± 0.6%	104.1 ± 9.3%	89.9 ± 5.3%	106.3 ± 1.6%					
CCNC(=S)N/N=C/c1cc(S(=O)(=O)[O-])cc(OC)c1[O-].[Cl-].[Cu+2].[Na+] [Compound 9]	<5%	85.8 ± 1.7%	96.6 ± 1.1%	91.4 ± 2.5%	104.8 ± 0.7%					
COc1cc(S(=O)(=O)[O-])cc(/C=N/NC(N)=O)c1[O-].[Cl-].[Cu+2].[Na+] [Compound 10, [NaCu(HL6)Cl]]	<5%	63.5 ± 3.8%	99.8 ± 1.8%	71.6 ± 1.3%	97.8 ± 1.4%					
CCCCCCCC(=O)N/N=C/c1cc(S(=O)(=O)[O-])cc(OC)c1[O-].[Cl-].[Cu+2].[Na+] [Compound 13, [NaCu(HL7)Cl]]	<5%	88.7 ± 0.9%	105.2 ± 2.0%	81.7 ± 5.4%	99.8 ± 3.6%					Plasmid DNA cleavage in presence of H2O2 (in words) [1]: only exception
CCNC(=S)N/N=C/c1cccc(OC)c1O [Compound H2L2]						97.2 ± 13.2	92.8 ± 3.1	96.8 ± 3.5	83.3 ± 14.4	
OC(Cn1cncn1)(Cn1cncn1)c1ccc(F)cc1F [FCZ, fluconazole, reference compound]										Microbial growth, C. albicans (Table S1) ([6]; fluconazole): 10.0 ± 0.6; Percentage values of microbial growth, C. albicans ([6]; fluconazole at 1.6 μM): 10.0 ± 0.6%
COc1cc(S(=O)(=O)[O-])cc(/C=N/NC(N)=S)c1O.[Na+] [NaH2L4]						85.6 ± 10.2	100.2 ± 1.0	99.0 ± 3.5	95.6 ± 3.2	
CCNC(=S)N/N=C/c1cc(S(=O)(=O)[O-])cc(OC)c1O.[Na+] [NaH2L5]						90.0 ± 4.9	107.4 ± 0.9	98.4 ± 3.0	95.6 ± 7.5	
COc1cc(S(=O)(=O)[O-])cc(/C=N/NC(N)=O)c1O.[Na+] [NaH2L6]						90.3 ± 0.8	97.1 ± 0.7	86.5 ± 1.9	85.3 ± 1.6	
CCCCCCCC(=O)N/N=C/c1cc(S(=O)(=O)[O-])cc(OC)c1O.[Na+] [NaH2L7]						87.6 ± 4.9	101.9 ± 1.3	102.2 ± 1.9	83.2 ± 2.7	
Triton X-100 [reference compound]										Percentage values of hemolytic activity, hRBCs [2]: 100 ± 2.6%
